In ChEMBL document CHEMBL4673189, “Recent progress in the discovery of ghrelin O-acyltransferase (GOAT) inhibitors” (RSC Med Chem, 2020):
Non-standard residues stand in square brackets, D forms with d. Residues, ends and D or L forms follow the SMILES beside them. *: point of attachment. Octanoyl = CCCCCCCC(=O)*; X1 = CC(C)C[C@@H](CN)N*; Dap = NC[C@H](N)C(=O)O

Assays:
[1] = In vivo inhibition of GOAT in C57BL/6 mouse assessed as reduction in ratio of AG to total-ghrelin at 18 mg/kg, po BID administered via gavage for 3 days by ELISA relative to control; type: functional; conditions: C57BL/6, po, 72 h, time 3 day
[2] = target: T1, Membrane-bound ghrelin O-acyltransferase MBOAT4 (Homo sapiens, UniProt Q96T53); test: Inhibition of human His-tagged GOAT expressed in baculovirus infected Sf9 cell membrane using desacyl-ghrelin-biotin and octanoyl-CoA as substrate incubated for 1 hr by ELISA; type: cell membranes
T1 sequence (Q96T53 whole entry): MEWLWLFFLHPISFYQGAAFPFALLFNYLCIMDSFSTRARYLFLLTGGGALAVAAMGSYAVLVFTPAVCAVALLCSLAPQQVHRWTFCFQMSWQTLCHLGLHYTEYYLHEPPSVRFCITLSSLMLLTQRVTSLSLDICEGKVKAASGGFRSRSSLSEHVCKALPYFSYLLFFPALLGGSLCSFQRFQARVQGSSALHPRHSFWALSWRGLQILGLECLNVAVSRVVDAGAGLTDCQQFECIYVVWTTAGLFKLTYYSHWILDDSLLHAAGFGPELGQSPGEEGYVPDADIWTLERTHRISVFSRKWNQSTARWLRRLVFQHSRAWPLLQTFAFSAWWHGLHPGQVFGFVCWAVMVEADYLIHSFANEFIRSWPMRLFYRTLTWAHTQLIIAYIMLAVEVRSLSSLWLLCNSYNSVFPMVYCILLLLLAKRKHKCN

[3] = target: T2, Membrane-bound ghrelin O-acyltransferase MBOAT4 (Mus musculus, UniProt P0C7A3); test: Inhibition of N-terminal His10-tagged mouse GOAT expressed in baculovirus infected sf9 insect cell membrane using proghrelin-His8 and [3H]octanoyl CoA as substrate by scintillation counting method; type: cell membranes
T2 sequence (P0C7A3 whole entry): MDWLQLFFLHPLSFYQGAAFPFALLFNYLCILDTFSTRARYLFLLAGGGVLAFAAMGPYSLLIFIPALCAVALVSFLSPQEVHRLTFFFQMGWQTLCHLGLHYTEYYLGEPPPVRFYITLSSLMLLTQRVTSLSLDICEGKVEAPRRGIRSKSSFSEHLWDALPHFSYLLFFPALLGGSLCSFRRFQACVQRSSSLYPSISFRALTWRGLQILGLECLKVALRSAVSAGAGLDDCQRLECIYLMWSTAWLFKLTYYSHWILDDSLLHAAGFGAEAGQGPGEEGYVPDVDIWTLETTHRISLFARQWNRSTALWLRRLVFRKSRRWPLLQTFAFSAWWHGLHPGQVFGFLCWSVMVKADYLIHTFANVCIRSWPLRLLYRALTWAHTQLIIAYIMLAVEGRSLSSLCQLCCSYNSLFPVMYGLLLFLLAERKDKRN

[4] = In vivo inhibition of GOAT in C57BL/6 mouse assessed as reduction in ratio of AG to total-ghrelin at 3 mg/kg, po BID administered via gavage for 3 days by ELISA relative to control; type: functional; conditions: C57BL/6, po, 72 h, time 3 day
[5] = In vivo inhibition of GOAT in C57BL/6 mouse assessed as reduction in ratio of AG to total-ghrelin at 0.3 mg/kg, po BID administered via gavage for 3 days by ELISA relative to control; type: functional; conditions: C57BL/6, po, 72 h, time 3 day
[6] = In vivo inhibition of GOAT in C57BL/6 mouse assessed as increase in unacylated-ghrelin level at 10 mg/kg, po BID administered via gavage for 3 days by ELISA relative to control; type: functional; conditions: time 3 day
[7] = In vivo inhibition of GOAT in C57BL/6 mouse assessed as decrease in plasma acylated ghrelin level at 10 mg/kg, po BID administered via gavage for 3 days by ELISA relative to control; type: functional; conditions: C57BL/6, po, 72 h, time 3 day
[8] = In vivo inhibition of GOAT in C57BL/6 mouse assessed as increase in unacylated-ghrelin level at 1 mg/kg, po BID administered via gavage for 3 days by ELISA relative to control; type: functional; conditions: time 3 day
[9] = In vivo inhibition of GOAT in C57BL/6 mouse assessed as increase in unacylated-ghrelin level at 3 mg/kg, po BID administered via gavage for 3 days by ELISA relative to control; type: functional; conditions: time 3 day
[10] = In vivo inhibition of GOAT in C57BL/6 mouse assessed as decrease in plasma acylated ghrelin level at 1 mg/kg, po BID administered via gavage for 3 days by ELISA relative to control; type: functional; conditions: C57BL/6, po, 72 h, time 3 day
[11] = In vivo inhibition of GOAT in C57BL/6 mouse assessed as reduction in ratio of AG to total-ghrelin at 10 mg/kg, po BID administered via gavage for 3 days by ELISA relative to control; type: functional; conditions: C57BL/6, po, 72 h, time 3 day
[12] = In vivo inhibition of GOAT in C57BL/6 mouse assessed as decrease in plasma acylated ghrelin level at 0.3 mg/kg, po BID administered via gavage for 3 days by ELISA relative to control; type: functional; conditions: C57BL/6, po, 72 h, time 3 day
[13] = In vivo inhibition of GOAT in C57BL/6 mouse assessed as increase in unacylated-ghrelin level at 0.3 mg/kg, po BID administered via gavage for 3 days by ELISA relative to control; type: functional; conditions: time 3 day
[14] = In vivo inhibition of GOAT in C57BL/6 mouse assessed as decrease in plasma acylated ghrelin level at 3 mg/kg, po BID administered via gavage for 3 days by ELISA relative to control; type: functional; conditions: C57BL/6, po, 72 h, time 3 day
[15] = In vivo inhibition of GOAT in C57BL/6 mouse assessed as reduction in ratio of AG to total-ghrelin at 1 mg/kg, po BID administered via gavage for 3 days by ELISA relative to control; type: functional; conditions: C57BL/6, po, 72 h, time 3 day
[16] = target: T2, Membrane-bound ghrelin O-acyltransferase MBOAT4; test: Antagonist activity at mouse GOAT expressed in baculovirus infected sf9 insect cell membrane using ghrelin(1 to 5) pentapeptide as substrate preincubated for 5 mins followed by Palmitoyl-CoA and n-octynoyl-CoA addition and measured after 5 mins by amplex red/H2O2 reagent-based fluorescence method; type: cell membranes
[17] = In vivo inhibition of GOAT in C57BL/6 mouse assessed as reduction in ratio of AG to total-ghrelin at 0.1 mg/kg, po BID administered via gavage for 3 days by ELISA relative to control; type: functional; conditions: C57BL/6, po, 72 h, time 3 day
[18] = target: T1, Membrane-bound ghrelin O-acyltransferase MBOAT4; test: Inhibition of human His-tagged GOAT expressed in baculovirus infected Sf9 cell membrane using biotinylated ghrelin peptide/octanoyl-CoA/palmitoyl CoA as substrate incubated for 80 mins by TR-FRET assay; type: cell membranes
[19] = In vivo inhibition of GOAT in cynomolgus monkey assessed as reduction in plasma acyl ghrelin AUC (0 to 24 hrs) at 10 mg/kg, po administered as single dose measured after 15 mins to 24 hrs relative to control; type: functional; conditions: Macaca fascicularis, 0.25 h
[20] = In vivo inhibition of GOAT in mouse model of HFHC-diet induced obesity assessed as reduction in acyl ghrelin level at 10 mg/kg, po administered once daily for 7 days relative to control; type: functional; conditions: 168 h, time 7 day
[21] = target: T1, Membrane-bound ghrelin O-acyltransferase MBOAT4; test: Inhibition of human GOAT expressed in baculovirus infected sf9 insect cell membrane using GSSFLC-acrylodan and octanoyl-CoA as substrate preincubated for 30 mins followed by substrate addition and measured after 3 hrs by HPLC analysis; type: cell membranes
[22] = target: T2, Membrane-bound ghrelin O-acyltransferase MBOAT4; test: Inhibition of mouse GOAT expressed in baculovirus infected sf9 insect cell microsomes using biotinylated des-acyl ghrelin and octanoyl-CoA -CoA as substrate incubated for 15 mins by HTRF assay; parameters: species or system Microsome
[23] = target: T1, Membrane-bound ghrelin O-acyltransferase MBOAT4; test: Inhibition of human GOAT expressed in baculovirus infected sf9 insect cell microsomes using biotinylated des-acyl ghrelin and octanoyl-CoA as substrate incubated for 15 mins by HTRF assay; parameters: species or system Microsome
[24] = target: T1, Membrane-bound ghrelin O-acyltransferase MBOAT4; test: Inhibition of GOAT (unknown origin)
[25] = target: Growth hormone secretagogue receptor type 1 (Homo sapiens, UniProt Q92847); test: Inhibition of GHSR-1A (unknown origin)
Growth hormone secretagogue receptor type 1, sequence (Q92847 whole entry): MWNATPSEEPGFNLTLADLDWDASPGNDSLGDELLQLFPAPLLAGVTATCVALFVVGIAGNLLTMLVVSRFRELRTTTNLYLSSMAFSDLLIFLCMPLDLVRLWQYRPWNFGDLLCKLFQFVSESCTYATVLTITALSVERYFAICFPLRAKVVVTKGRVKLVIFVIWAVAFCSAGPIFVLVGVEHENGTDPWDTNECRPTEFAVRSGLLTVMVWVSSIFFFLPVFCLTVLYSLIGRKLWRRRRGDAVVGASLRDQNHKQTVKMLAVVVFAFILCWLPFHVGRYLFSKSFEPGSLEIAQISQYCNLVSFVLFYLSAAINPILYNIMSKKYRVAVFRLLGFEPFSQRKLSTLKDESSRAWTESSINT

C[C@H](NC(=O)c1ccn(C)n1)C(=O)N1CCC(CCc2c(N)nc(N)nc2Cl)CC1
inhibition in vivo at 18 mg/kg [1]: 86% | IC50 [2]: 68.9 nM

CCCC[C@H]1C[C@H](C(=O)NC[C@H]2CCCN2C(=O)[C@@H](NC(=S)CNC)C(C)(C)C)C1
IC50 [3]: 0.03 µM

C[C@H](NC(=O)C1CC1)C(=O)N1CCC(CCc2c(N)nc(N)nc2Cl)CC1
inhibition in vivo at 3 mg/kg [4]: 71% | inhibition in vivo at 0.3 mg/kg [5]: 39% | fold change (FC) [6]: 2.9 | inhibition in vivo at 10 mg/kg [7]: 48% | fold change (FC) [8]: 2.82 | fold change (FC) [9]: 2.53 | inhibition in vivo at 1 mg/kg [10]: 5% | inhibition in vivo at 10 mg/kg [11]: 77% | inhibition in vivo at 0.3 mg/kg [12]: -1% | fold change (FC) [13]: 2.24 | IC50 [2]: 192 nM | inhibition in vivo at 3 mg/kg [14]: 45% | inhibition in vivo at 1 mg/kg [15]: 54%

CCCCCCCC(=O)OC[C@H](OC(=O)[C@H](CO)NC(=O)CN)C(=O)N[C@@H](Cc1ccccc1)C(=O)N[C@@H](CC(C)C)C(=O)N[C@@H](CO)C(=O)N1CCC[C@H]1C(=O)N[C@@H](CCC(=O)O)C(=O)N[C@@H](Cc1cnc[nH]1)C(=O)N[C@@H](CCC(N)=O)C(=O)N[C@@H](CCCCN)C(=O)N[C@@H](C)C(=O)N[C@@H](CCC(N)=O)C(=O)N[C@@H](CCC(N)=O)C(=O)N[C@@H](CCCNC(=N)N)C(=O)N[C@@H](CCCCN)C(=O)N[C@@H](CCC(=O)O)C(=O)N[C@@H](CO)C(=O)N[C@@H](CCCCN)C(=O)N[C@@H](CCCCN)C(=O)N1CCC[C@H]1C(=O)N1CCC[C@H]1C(=O)N[C@@H](C)C(=O)N[C@@H](CCCCN)C(=O)N[C@@H](CC(C)C)C(=O)N[C@@H](CCC(N)=O)C(=O)N1CCC[C@H]1C(=O)N[C@@H](CCCNC(=N)N)C(=O)O
IC50 [3]: 7 µM

CCCCCCN(C(C)=O)C(CNCc1ccccc1)c1ccc2cc(O)ccc2c1 (centres undefined)
IC50 [16]: 7.5 µM

COC(=O)N[C@@H](C)C(=O)N1CCC(CCc2c(N)nc(C)nc2Cl)CC1
inhibition in vivo at 3 mg/kg [4]: 82% | fold change (FC) [9]: 2.9 | inhibition in vivo at 3 mg/kg [14]: 66%

Cc1nc(C(F)(F)F)nc(N)c1CCC1CCN(C(=O)[C@H](C)NC(=O)c2ccnn2C)CC1
inhibition in vivo at 3 mg/kg [4]: 82% | inhibition in vivo at 0.3 mg/kg [5]: 62% | inhibition in vivo at 10 mg/kg [11]: 82% | inhibition in vivo at 0.1 mg/kg [17]: 57% | inhibition in vivo at 1 mg/kg [15]: 79%

CCCCCCCCN(C(C)=O)C(CNCc1ccccc1)c1ccc2cc(O)ccc2c1 (centres undefined)
IC50 [16]: 13 µM

O=C(O)Cc1csc2cc(O[C@H]3CCc4ncccc43)cc(Cl)c12
IC50 [18]: < 50 nM | inhibition in vivo at 10 mg/kg [19]: 51% | inhibition in vivo at 10 mg/kg [20]: 28%

CCCCCCC[C@](C)(O)/C=C/[C@H](NC(=O)OCc1ccccc1)C(=O)OC
IC50 [3]: 50 µM

CC1(C)C(=O)C(C#N)=C[C@]2(C)[C@H]3CC[C@]4(C)CCC[C@H]4[C@@H]3CC[C@@H]12
IC50 [21]: 8 µM

CCCCCCC[C@H](O)/C=C/[C@H](NC(=O)OCc1ccccc1)C(=O)OC
IC50 [3]: 90 µM

O=C(O)c1ccc2oc(SCc3ccc(Cl)cc3Cl)nc2c1
IC50 [22]: 3.3 nM | IC50 [23]: 8.6 nM

CCCCCCCC(=O)OC[C@H](NC(=O)[C@H](CO)NC(=O)CN)C(=O)N[C@@H](Cc1ccccc1)C(=O)N[C@H](CN)CC(C)C (H-GSS(Octanoyl)F-X1)
IC50 [3]: 45 µM

CCCCCCCC(=O)NC[C@H](NC(=O)[C@H](CO)NC(=O)CN)C(=O)N[C@@H](Cc1ccccc1)C(=O)N[C@H](CN)CC(C)C (H-GS[Dap](Octanoyl)F-X1)
IC50 [3]: 1 µM

C[C@@H](O)[C@H](NC(=O)[C@@H]1CCCN1C(=O)[C@H](CO)NC(=O)[C@H](Cc1cccc2ccccc12)NC(=O)[C@H](CN)NC(=O)[C@H](CO)NC(=O)CN)C(N)=O (HELM PEPTIDE1{G.S.[NC[C@H](N[*:1])C(=O)[*:2]].[O=C([C@H](Cc1cccc2ccccc12)N[*:1])[*:2]].S.P.T.[am]}$$$$V2.0)
IC50 [24]: 6 nM | IC50 [25]: 100 µM
